Measurements published in PMC10489748, “The Anti-Breast Cancer Stem Cell Potency of Copper(I)-Non-Steroidal Anti-Inflammatory Drug Complexes” (Molecules, 2023).
Like-named read-outs stand apart in the source and are kept apart here.

Assays:
HMLER-shEcad cells [1] = conditions: 72 h incubation, cited from earlier work
HMLER cells [2] = conditions: 72 h incubation, cited from earlier work
[3] = test system: HMLER-shEcad mammospheres; design: method as in PMID 26806362, PMID 31588328, PMID 28932846, PMID 31209956; conditions: 120 h incubation, ref [14],[37],[39],[40], read-out: Mammosphere IC50; cited from earlier work
HMLER-shEcad cells [4] = test: Intracellular ROS assay (DCFH-DA); assay type: cell-based, human; conditions: 2 × IC50 value
Description: HMLER-shEcad cells (5 × 10^3) were seeded in each well of a 96-well plate. […] The intracellular ROS level was determined via measurement of the fluorescence of the solutions in each well at 529 nm (λex = 504 nm).

BEAS-2B cells = test: MTT cytotoxicity assay, non-cancerous bronchial epithelium cells; assay type: cell-based; conditions: 72 h incubation
Description: (§1) Exponentially growing cells were seeded at a density of approximately 5 × 10^3 cells per well in 96-well flat-bottomed microplates, and allowed to attach for 24 h prior to the addition of compounds. Various concentrations of the test compounds (0.19–100 μM) were added, and the plates were incubated for 72 h at 37 °C (total volume 200 μL). Stock solutions of the compounds were prepared as 10 mM DMSO solutions, and diluted using cell media. The final concentration of DMSO in each well was ≤1 %. After 72 h, 20 μL of MTT (4 mg mL^−1 in PBS) was added to each well, and the plates were incubated for an additional 4 h at 37 °C. The media/MTT mixture was eliminated, and DMSO (100 μL per well) was added to dissolve the formazan precipitates. The optical density was measured at 550 nm, using a 96-well multiscanner autoreader. Absorbance values were normalised to (DMSO-containing) control wells, and plotted as concentration of compound versus % cell viability. IC50 values were interpolated from the resulting dose-dependent curves.

HMLER-shEcad cells [5] = test: MTT cytotoxicity assay, breast CSCs; assay type: cell-based, human; conditions: 72 h incubation
Description: as §1, with “Various concentrations of the test compounds (0.19–100 μM) were added, and the plates were incubated for 72 h at 37 °C (total volume 200 μL).” left out, “The final concentration of DMSO in each well was ≤1 %.” left out, “The optical density was measured at 550 nm, using a 96-well multiscanner autoreader.” left out

HMLER cells [6] = test: MTT cytotoxicity assay, bulk breast cancer cells; assay type: cell-based, human; conditions: 72 h incubation
Description: as §1, with “Various concentrations of the test compounds (0.19–100 μM) were added, and the plates were incubated for 72 h at 37 °C (total volume 200 μL).” left out, “The final concentration of DMSO in each well was ≤1 %.” left out, “The optical density was measured at 550 nm, using a 96-well multiscanner autoreader.” left out

[7] = test system: HMLER-shEcad mammospheres; test: Mammosphere viability assay (TOX8); assay type: cell-based, human; conditions: TOX8, 120 h incubation
Description: HMLER-shEcad cells (5 × 10^3) were plated in ultralow-attachment 96-well plates (Corning) and incubated in MEGM supplemented with B27 (Invitrogen), 20 ng mL^−1 EGF, and 4 μg mL^−1 heparin (Sigma), for 5 days. Studies were also conducted in the presence of 1–3, cisplatin and salinomycin (0–133 µM). Mammospheres treated with 1–3, cisplatin, and salinomycin (0.5 µM, 5 days) were counted and imaged, using an inverted microscope. The viability of the mammospheres was determined via the addition of a resazurin-based reagent, TOX8 (Sigma). After incubation for 16 h, the fluorescence of the solutions was read at 590 nm (λex = 560 nm). Viable mammospheres reduce the amount of the oxidised TOX8 form (blue) and, concurrently, increase the amount of the fluorescent TOX8 intermediate (red), indicating the degree of mammosphere cytotoxicity caused by the test compound. Fluorescence values were normalised to DMSO-containing controls, and plotted as concentration of test compound versus % mammospheres viability. IC50 values were interpolated from the resulting dose-dependent curves. The reported IC50 values are the average of two independent experiments, each consisting of two replicates per concentration level (n = 4).

[8] = Water–octanol partition coefficient (LogP), shake-flask method and ICP-MS; assay type: physicochemical; conditions: water/1-octanol, room temperature, 24 h
Description: The 1-octanol used in this experiment was pre-saturated with water. […] The tube was shaken at room temperature for 24 h. The two phases were separated via centrifugation, and the copper content in the water phase was determined via ICP-MS.

[9] = ref [1,2] of the SI (Eskandari et al. 2016; Eskandari, Suntharalingam 2019)

**Q.** What does the source list for `N.N.[Cl][Pt][Cl]` [cisplatin]?
**A.** IC50 (HMLER-shEcad cells [1]; ref [14],[37],[39],[40]): 5.65 ± 0.3 µM; IC50 (HMLER cells [2]; ref [14],[37],[39],[40]): 2.57 ± 0.02 µM; IC50 [3]: 13.5 ± 2.34 µM

**Q.** For `O=C([O-])Cc1ccccc1Nc1c(Cl)cccc1Cl.[Cu+].c1ccc(P(c2ccccc2)c2ccccc2)cc1.c1ccc(P(c2ccccc2)c2ccccc2)cc1` [compound 1, [Cu^I(diclofenac)(PPh3)2]], which “Increase in ROS levels compared to untreated control cells” value (HMLER-shEcad cells [4]; 1 h exposure) is on record?
**A.** Its value is 76%.

**Q.** And the “Change of intracellular ROS status” value (HMLER-shEcad cells [4]; exposure beyond 1 h (3–24 h))?
**A.** Its value is “did not markedly alter”.

**Q.** And the IC50 (BEAS-2B cells)?
**A.** Its IC50 is 4.32 ± 0.13 µM.

**Q.** And the IC50 (HMLER-shEcad cells [5])?
**A.** Its IC50 is 4.61 ± 0.18 µM.

**Q.** And the IC50 (HMLER cells [6])?
**A.** Its IC50 is 2.42 ± 0.1 µM.

**Q.** And the IC50 [7]?
**A.** Its IC50 is 18.2 ± 2.02 µM.

**Q.** With `COc1ccc2cc(C(C)C(=O)[O-])ccc2c1.[Cu+].c1ccc(P(c2ccccc2)c2ccccc2)cc1.c1ccc(P(c2ccccc2)c2ccccc2)cc1` [compound 2, [Cu^I(naproxen)(PPh3)2]] as the compound, how does the “Increase in ROS levels” value (HMLER-shEcad cells [4]; 16 h exposure) read?
**A.** Its value is 41%.

**Q.** What about the “Increase in ROS levels” value (HMLER-shEcad cells [4]; 24 h exposure) of the same compound?
**A.** Its value is 32%.

**Q.** And the IC50 (BEAS-2B cells)?
**A.** Its IC50 is 4.11 ± 0.001 µM.

**Q.** And the IC50 (HMLER-shEcad cells [5])?
**A.** The IC50 was 4.46 ± 0.08 µM.

**Q.** And the IC50 (HMLER cells [6])?
**A.** Its IC50 is 2.36 ± 0.03 µM.

**Q.** What about the IC50 [7] of the same compound?
**A.** Its IC50 is 11.8 ± 0.7 µM.

**Q.** For `O=C([O-])c1ccccc1O.[Cu+].c1ccc(P(c2ccccc2)c2ccccc2)cc1.c1ccc(P(c2ccccc2)c2ccccc2)cc1` [compound 3, [Cu^I(salicylate)(PPh3)2]], which “Increase in ROS levels” value (HMLER-shEcad cells [4]; 16 h exposure) is on record?
**A.** Its value is 191%.

**Q.** And the “Increase in ROS levels” value (HMLER-shEcad cells [4]; 24 h exposure)?
**A.** Its value is 75%.

**Q.** And the IC50 (BEAS-2B cells)?
**A.** The IC50 was 3.53 ± 0.21 µM.

**Q.** And the IC50 (HMLER-shEcad cells [5])?
**A.** Its IC50 is 4.55 ± 0.001 µM.

**Q.** And the IC50 (HMLER cells [6])?
**A.** The IC50 was 2.13 ± 0.002 µM.

**Q.** And the IC50 [7]?
**A.** Its IC50 is 13.6 ± 0.74 µM.

**Q.** What about the LogP [8] of the same compound?
**A.** Its LogP is 0.82 ± 0.002.

**Q.** With `O=C(O)Cc1ccccc1Nc1c(Cl)cccc1Cl` [diclofenac] as the compound, how does the IC50 (HMLER-shEcad cells [1]; [9]) read?
**A.** Its IC50 is 54.74 ± 0.23 µM.

**Q.** And the IC50 (HMLER cells [2]; [9])?
**A.** The IC50 was 69.5 ± 8.7 µM.

**Q.** Which IC50 (HMLER-shEcad cells [1]; [9]) does the source give for `COc1ccc2cc([C@H](C)C(=O)O)ccc2c1` [naproxen] here?
**A.** Its IC50 is > 100 µM.

**Q.** What about the IC50 (HMLER cells [2]; [9]) of the same compound?
**A.** Its IC50 is > 100 µM.

**Q.** Which results are given for `CC[C@@H](C(=O)[C@@H](C)[C@@H](O)[C@H](C)[C@@H]1O[C@@H]([C@@H](CC)C(=O)O)CC[C@@H]1C)[C@H]1O[C@]2(C=C[C@@H](O)[C@]3(CC[C@@](C)([C@H]4CC[C@](O)(CC)[C@H](C)O4)O3)O2)[C@H](C)C[C@@H]1C` [salinomycin]?
**A.** IC50 (HMLER-shEcad cells [1]; ref [14],[37],[39],[40]): 4.23 ± 0.35 µM; IC50 (HMLER cells [2]; ref [14],[37],[39],[40]): 11.4 ± 0.42 µM; IC50 [3]: 18.5 ± 1.5 µM
